Reference: EP3056202A1, “BENZOPYRROLIDONE DERIVATIVES POSSESSING ANTIVIRAL AND ANTICANCER PROPERTIES” (Max-Planck-Gesellschaft zur Förderung der Wissenschaften …, priority 2015, dated 2016)
Converted amounts (≈) assume the structure as drawn.

How the values were obtained:
human Akt1 kinase = human Akt1 kinase (Homo sapiens, UniProt P31749); experiment: In vitro Akt1 assay (IMAP fluorescence polarization, phosphorylation of TAMRA-peptide); assay type: biochemical; conditions: 40 µM ATP; for inhibition at 12.5 µM: 12.5 uM compound, read-out: Akt1 inh% @12.5 uM
Chain of human Akt1 kinase (P31749 whole entry): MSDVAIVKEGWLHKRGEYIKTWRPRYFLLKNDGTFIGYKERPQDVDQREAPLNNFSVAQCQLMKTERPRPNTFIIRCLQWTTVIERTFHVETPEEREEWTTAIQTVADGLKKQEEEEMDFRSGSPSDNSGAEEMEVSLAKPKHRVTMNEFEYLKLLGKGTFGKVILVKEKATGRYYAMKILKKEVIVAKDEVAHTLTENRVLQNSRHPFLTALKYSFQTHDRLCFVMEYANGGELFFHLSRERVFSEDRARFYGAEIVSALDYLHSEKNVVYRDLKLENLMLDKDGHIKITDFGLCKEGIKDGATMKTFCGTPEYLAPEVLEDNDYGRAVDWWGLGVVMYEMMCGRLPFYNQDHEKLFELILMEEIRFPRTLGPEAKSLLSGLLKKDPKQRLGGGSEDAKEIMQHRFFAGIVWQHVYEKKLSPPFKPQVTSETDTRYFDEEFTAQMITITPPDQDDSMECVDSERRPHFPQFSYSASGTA
Experimental: The inhibition of Akt1 by the compounds described in the present invention were determined measuring the phosphorylation of a fluorescently-labeled peptide (TAMRA-peptide) by human Akt1 kinase by fluorescent polarization using a commercially available IMAP Screening Express Assay Kit (Molecular Devices).
Akt1 kinase assays were performed in low protein binding 384-well plates (Corning). Test compounds were diluted in 100% DMSO to 5 mM stock concentration and then further dilutions were made in H2O or 100% DMSO to desirable concentrations.
Each reaction consisted of 5 nM enzyme: Akt1 kinase, 400 nM TAMRA-peptide (5-TAMRA-GRTGRRNSI-COOH; Genecust), 40 µM ATP and kinase buffer: 20 mM MES pH6, 1 mM DTT, 10 mM MgCl2, 2 mM MnCl2, 0.01 V/V% TritonX (all reagents from Sigma-Aldrich).
(§1) For each reaction, 4 or 6 µl containing TAMRA-peptide, ATP and kinase buffer were combined with 2 µl diluted compound in H2O or 0.02 µl compound in 100% DMSO. The kinase reaction was started by the addition of 2 µl diluted enzyme. The reaction was allowed to run for 1 hour at room temperature. The reaction was stopped by adding 15 µl IMAP beads (1:400 beads in progressive (75% buffer A, 25% buffer B) 1x buffer). After an additional hour, fluorescent polarization (Ex: 550-10 nm, Em: 590-10 nm, Dich: 561 nm) was measured using an Analyst GT (Molecular Devices).

human Ack1 kinase = human Ack1 kinase (Homo sapiens, UniProt Q07912); experiment: In vitro Ack1 assay (TranScreener ADP2 FP, generation of ADP); assay type: biochemical; conditions: 12.5 uM compound; 3.5 µM ATP; read-out: Ack1 inh% @12.5 uM
Chain of human Ack1 kinase (Q07912 whole entry): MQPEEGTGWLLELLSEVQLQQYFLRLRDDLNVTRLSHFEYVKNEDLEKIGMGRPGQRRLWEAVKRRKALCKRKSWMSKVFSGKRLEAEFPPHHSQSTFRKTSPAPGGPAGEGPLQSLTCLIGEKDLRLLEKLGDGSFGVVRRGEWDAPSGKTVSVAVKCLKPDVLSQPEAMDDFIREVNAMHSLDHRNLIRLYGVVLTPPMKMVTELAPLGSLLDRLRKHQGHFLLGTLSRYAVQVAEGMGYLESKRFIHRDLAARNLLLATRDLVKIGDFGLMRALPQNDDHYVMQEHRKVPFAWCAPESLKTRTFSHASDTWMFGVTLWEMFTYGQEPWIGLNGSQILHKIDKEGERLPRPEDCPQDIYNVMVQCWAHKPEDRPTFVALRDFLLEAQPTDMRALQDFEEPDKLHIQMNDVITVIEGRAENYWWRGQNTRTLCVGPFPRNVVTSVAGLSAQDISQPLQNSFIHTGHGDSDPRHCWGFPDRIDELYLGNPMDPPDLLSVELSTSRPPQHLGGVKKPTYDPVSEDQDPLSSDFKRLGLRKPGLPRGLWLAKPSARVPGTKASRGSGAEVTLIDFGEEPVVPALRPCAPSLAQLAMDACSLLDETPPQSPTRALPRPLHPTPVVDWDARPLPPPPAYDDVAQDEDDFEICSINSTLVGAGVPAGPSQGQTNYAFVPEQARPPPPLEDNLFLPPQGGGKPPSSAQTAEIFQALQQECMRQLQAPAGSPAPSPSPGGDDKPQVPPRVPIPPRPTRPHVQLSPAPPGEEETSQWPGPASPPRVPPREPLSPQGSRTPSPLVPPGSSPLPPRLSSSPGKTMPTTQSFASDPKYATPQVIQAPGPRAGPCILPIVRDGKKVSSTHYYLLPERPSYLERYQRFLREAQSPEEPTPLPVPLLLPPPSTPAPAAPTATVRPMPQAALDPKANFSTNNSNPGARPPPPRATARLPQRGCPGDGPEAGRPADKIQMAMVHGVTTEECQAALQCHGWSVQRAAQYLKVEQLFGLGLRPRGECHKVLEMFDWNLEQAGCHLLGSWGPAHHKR
Experimental: The activity of the compounds described in the present invention can be determined by the following kinase assay, which measures the generation of ADP by human Ack1 kinase by fluorescent polarization using a commercially available TranScreener ADP2 FP Assay Kit (BellBrook Labs).
Ack1 kinase assays were performed in low protein binding 384-well plates (Corning). Test compounds were diluted in 100% DMSO to 5 mM stock concentration and then further dilutions were made in H2O or 100% DMSO to desirable concentrations.
Each reaction consisted of 5 nM enzyme: Ack1 kinase, Poly Glu-Tyr (4:1) (Sigma), 3.5 µM ATP and kinase buffer: 20 mM HEPES pH7.5, 1 mM DTT, 2 mM MgCl2, 0.4 mM MnCl2, 0.01 V/V% Tween20 (all reagents from Sigma-Aldrich)
For each reaction, 4 or 6 µl containing Poly Glu-Tyr (4:1), ATP and kinase buffer were combined with 2 µl diluted compound in H2O or 0.02 µl compound in 100% DMSO. The kinase reaction was started by the addition of 2 µl diluted enzyme. The reaction was allowed to run for 1 hour at room temperature. The reaction was stopped by addition of 8 µl ADP detection mixture (1 x) (1 x Detection buffer + 4.78 µg/ml ADP2 Ab + 4 nM ADP Alexa633 Tracer). After an additional hour, fluorescent polarization (Ex: 630-35 nm, Em: 680-30 nm, Dich: 650 nm) was measured using an Analyst GT (Molecular Devices).

human Clk1 kinase = biological target: T1, human Clk1 kinase (Homo sapiens, UniProt P49759); experiment: In vitro Clk1 assay (IMAP fluorescence polarization); assay type: biochemical; conditions: 0.45 µM ATP
T1 construct: Each reaction consisted of 4 nM enzyme: Clk1 kinase domain
T1 sequence (P49759 161-477 limits assumed): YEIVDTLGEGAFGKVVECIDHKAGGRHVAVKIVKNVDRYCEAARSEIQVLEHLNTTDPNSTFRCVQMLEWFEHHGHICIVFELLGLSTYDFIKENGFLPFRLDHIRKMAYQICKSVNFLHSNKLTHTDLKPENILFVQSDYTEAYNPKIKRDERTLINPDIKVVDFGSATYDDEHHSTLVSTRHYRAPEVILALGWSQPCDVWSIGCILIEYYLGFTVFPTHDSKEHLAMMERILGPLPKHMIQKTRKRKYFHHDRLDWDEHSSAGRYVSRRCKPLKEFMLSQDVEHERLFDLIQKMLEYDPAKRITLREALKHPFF
Experimental: The activity of the compounds described in the present invention can be determined by the following kinase assay, which measures the phosphorylation of a fluorescently-labeled peptide by human Clk1 kinase by fluorescent polarization using a commercially available IMAP Screening Express Assay Kit (Molecular Devices).
Clk1 kinase assays were performed in low protein binding 384-well plates (Corning). Test compounds were diluted in 100% DMSO to 5 mM stock concentration and then further dilutions were made in H2O or 100% DMSO to desirable concentrations.
Each reaction consisted of 4 nM enzyme: Clk1 kinase domain, 400 nM TAMRA-AFRREWSPGKEAKK-NH2 (Genecust), 0.45 µM ATP (Sigma) and kinase buffer: 20 mM TRIS pH 8, 1 mM DTT, 0.4 mM MgCl2, 0.4 mM MnCl2, 0.01 V/V% Tween20 (all reagents from Sigma-Aldrich)
as §1, with “(1:600” for “(1:400”, “(80 %” for “(75%”, “20%” for “25%”

[1] = tested on: H1 N1 influenza virus strain A/WSN/33; experiment: microbe, parasite or virus in culture; assay type: cell-based; conditions: 36 h, read-out: Influenza replication IC50
[2] = tested on: A549 human lung carcinoma cells; experiment: Cell-based EC50 determination, A549 cells (CellTiter-Glo cell viability); conditions: A549, 24 h, read-out: A549 EC50 24h
Experimental: A549 human lung carcinoma cells were cultured in RPMI 1640 medium (Sigma) supplemented with 10% fetal bovine serum (Sigma) and Antibiotic-Antimycotic (Sigma) in tissue culture flasks at 37°C in a humidified 5% CO2 atmosphere. Cells were routinely assayed for mycoplasma contamination.
Two thousand cells were plated in 384-well tissue culture plates, and treated after 24 hours with a 10-point dilution series of the compounds (1.5 nM-30 uM), using the vehicle, DMSO as control. Cells were incubated for 24 hours after which the relative cell density was determined by CellTiter-Glo Luminescent Cell Viability Assay (Promega). This method determines the number of metabolically active cells in the culture based on quantitation of the ATP present. The luminescent signal was measured with an Analyst GT multimode reader (Molecular Devices). […]

physchem = assay type: physicochemical; conditions: kinetic from dmso stock
Experimental: Samples were diluted in DMSO (control), phosphate buffer pH = 7.4 and pH = 2.0, from 5mM stock solutions (solved in DMSO), with a 120 µM final concentration. The samples were incubated for 24 hours at room temperature followed by 30 minutes centrifugation at 3700 rpm. 40 µl of the supernatants were injected into HPLC (Waters 2795 Alliance HPLC equipped with Waters 996 PDA Detector (HPLC column: Waters XBridge, RP C18, 3.5 µm, 4.6 mm x 50 mm; gradient MeCN/H2O, containing 0.1% HCOOH: 5% MeCN (0.5 min), 5% to 95% MeCN (5 min), 95% MeCN (0.5 min); flow rate: 2.0 ml/min)) and the AUC values (measured on sample specific wavelength) of the buffered samples were divided by the AUC values (same wavelength as buffered samples') of the DMSO control samples. Table 3: Solubility in water for several compounds according to general formula (I)

[3] = tested on: HCT-116 human colon carcinoma cell line; experiment: In vitro growth inhibition of colon carcinoma cells, HCT-116 (CellTiter-Glo); assay type: cell-based; conditions: 72 hours incubation, read-out: HCT116 EC50
[4] = tested on: HKE3 human colon carcinoma cell line; experiment: In vitro growth inhibition of colon carcinoma cells, HKE3 (CellTiter-Glo); assay type: cell-based; conditions: 72 hours incubation
[5] = tested on: HepG2 hepatoblastomaderived cell line; experiment: In vitro growth inhibition, HepG2 (CellTiter-Glo); assay type: cell-based; conditions: Homo sapiens, 72 hours incubation

SMILES	inhibition at 12.5 µM (human Akt1 kinase) [%]	IC50 (human Akt1 kinase) [nM]	inhibition at 12.5 µM (human Ack1 kinase) [%]	IC50 (human Clk1 kinase) [nM]	IC50 [1] [nM]	EC50 [2] [nM]	solubility at 24 h (physchem; pH 2, aqueous buffer) [µM]	solubility at 24 h (physchem; pH 7.4, aqueous buffer) [µM]	EC50 [3] [nM]	EC50 [4] [nM]	EC50 [5] [nM]
Cc1ccc([C@@H](C)NC(=O)c2ccc3c(c2)/C(=C(/Nc2cccc(CN4CCCCC4)c2)c2ccccc2)C(=O)N3)cc1 [Compound 27, (3Z)-N-[(1R)-1-(4-methylphenyl)ethyl]-2-oxo-3-(phenyl{[3-(piperidin-1-ylmethyl)phenyl]amino}methylene)indoline-5-carboxamide]	81.3	2960	9.9	200	2460	25400	110 to 120 (≈ 62.8 to 68.5 µg/mL)	< 10	1410	1320	5240
C[C@H](NC(=O)c1ccc2c(c1)/C(=C(/Nc1ccc(CN3CCCCC3)cc1)c1ccccc1)C(=O)N2)c1ccccc1 [Compound 30, (3Z)-2-oxo-N-[(1S)-1-phenylethyl]-3-(phenyl{[4-(piperidin-1-ylmethyl)phenyl]amino}methylene)indoline-5-carboxamide]	93	1300	80.5	10	< 10	5980	110 to 120 (≈ 61.2 to 66.8 µg/mL)	< 10	10	10	580
